From PubChem BioAssay AID463206 (Broad Institute, 2010)
The source made the active and inactive calls.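 How the source made its calls: active means caspase luminescence falls with dose and the half-maximal concentration AC50 from the fitted curve is at or below a set limit; inconclusive means flat fit at 30 to 70% signal loss, or invalid fit; inactive means AC50 above the limit, or signal rises instead.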

Tested on: INS-1E cytokine-induced caspase-3/7, Caspase-Glo luminescence, 48 h
Test: inhibitors of cytokine-induced caspase-3/7 activity, dose response, orthogonal assay for beta-cell apoptosis protection project, INS-1E rat cells, luminescence (AID 463206)

Structure (SMILES) | AC50
CC(=O)NC(c1ccco1)c1cc(F)c2cccnc2c1O (stereo unspecified) | > 26 µM (inactive)
Cn1cc(/C=C/c2cc[n+](C)cc2)c2cc(Cl)ccc21 | > 26 µM (inactive)
COc1ccc(NS(=O)(=O)c2ccc(-c3cnc(C4CC4)o3)cc2)cc1OC | > 26 µM (inactive)
CCOc1cccc(/C=N/Nc2ccc(S(=O)(=O)N(CC)CC)cn2)c1O | > 26 µM (inactive)
O=C(CSC1c2ccccc2-c2ccccc21)N/N=C/c1ccccc1O | > 26 µM (inactive)
COc1ccc(C(=O)Nc2ccccc2C(=O)N/N=C/c2ccccn2)cc1OC | > 26 µM (inactive)
Cc1ccccc1NC(=S)Nc1cccc2cnccc12 | > 26 µM (inactive)
CC1Cc2ccccc2N1C(=O)CSc1nc2ccccc2o1 (stereo unspecified) | > 26 µM (inactive)
O=[N+]([O-])c1cc(C(F)(F)F)ccc1NCCCCNS(=O)(=O)c1ccc(Cl)cc1 | > 26 µM (inactive)
CC[C@@]1(O)C(=O)OCc2c1cc1n(c2=O)Cc2cc3c(N)cccc3nc2-1 | 0.36 µM
CCCCCc1cc(=O)oc2c(C(CCN(CC)CC)c3ccc(OC)cc3)c(OC)cc(OC)c12 (stereo unspecified) | 23.2 µM
COCc1ccc(O)c2ncccc12 | > 26 µM (inactive)
O=C(Nc1ccc(Cc2ccncc2)cc1)c1ccc([N+](=O)[O-])o1 | > 26 µM (inactive)
Cc1sc2ncnc(NC3CCN(Cc4ccccc4)CC3)c2c1C | > 26 µM (inactive)
O=C(C1CCC1)N1CCc2cc(S(=O)(=O)Nc3ccc4c(c3)OCCO4)ccc21 | > 26 µM (inactive)
O=C(/C(N=Nc1cccc([N+](=O)[O-])c1)=C(/O)c1ccc(Br)cc1)C(F)(F)F | > 26 µM (inactive)
CCN(Cc1ccccc1)C(c1cccs1)c1nnnn1C1CCCCC1 (stereo unspecified) | > 26 µM (inactive)
N#CC1=C(N)N2C(=C(C#N)C1c1ccc(Br)cc1)Nc1ccccc12 (stereo unspecified) | > 26 µM (inactive)
CCN(CC)S(=O)(=O)c1cc(NC(=O)CNc2cccc(S(=O)(=O)N3CCCC3)c2)ccc1C | > 26 µM (inactive)
O=C1C(=O)c2ccc(-c3ccccc3)cc2-c2ccccc21 | > 26 µM (inactive)
O=C(c1cc(-c2cccc(Cl)c2)nc2ccccc12)N1CCN(c2ccccn2)CC1 | > 26 µM (inactive)
CC(=O)c1c(C)[nH]c(C(=O)OCC(=O)Nc2ccc(Cl)cc2[N+](=O)[O-])c1C | > 26 µM (inactive)
Cc1oc2c(c1C(=O)N1CCOCC1)C(=O)c1ccccc1C2=O | > 26 µM (inactive)
O=S(=O)(Nc1cc(Sc2cccc3cccnc23)c(O)c2ccccc12)c1ccc(F)cc1 | > 26 µM (inactive)

Structure (SMILES) | AC50
[O-][N+]1=c2ccc(Nc3ccccc3)cc2=NC12CCCCC2 | > 26 µM (inactive)
COc1ccc(S(=O)(=O)N(C(=O)c2ccco2)c2cc3sc(=O)oc3c3ccccc23)cc1 | > 26 µM (inactive)
S=C(Nc1ccc(Cl)cc1)Nc1cccc2cnccc12 | > 26 µM (inactive)
Cc1ccc(S(=O)(=O)N2CCOCC2)cc1C(=O)Nc1nc(-c2ccccn2)cs1 | > 26 µM (inactive)
FC(F)(F)c1nnc(-c2ccccc2)nc1Sc1ccc(Cl)cc1 | > 26 µM (inactive)
Oc1c(C(Nc2ccccn2)c2cccnc2)cc(Cl)c2cccnc12 (stereo unspecified) | > 26 µM (inactive)
O=C(c1cc(COc2cccc(C(F)(F)F)c2)on1)N1CCC(c2ccncc2)CC1 | > 26 µM (inactive)
Cc1nc2cc(-c3ccccc3)sc2c(=O)n1N | > 26 µM (inactive)
COc1ccc(-n2cc(-c3ccc(OC(F)F)cc3)[n+]3c2CCCCC3)cc1 | > 26 µM (inactive)
Cc1ccc(-c2nc(N/N=C/c3cccnc3)c3ccccc3n2)cc1 | > 26 µM (inactive)
Cc1ccc(S(=O)(=O)Nc2ccc(NC(=O)Nc3cccc(C(F)(F)F)c3)cc2)cc1 | > 26 µM (inactive)
Cc1ccc(S(=O)(=O)/N=C2\C=C(Nc3ccc(O)cc3)C(=O)c3ccccc32)cc1 | > 26 µM (inactive)
O=C(NCc1cccnc1)c1ccc(-c2cc3ccccc3oc2=O)cc1 | > 26 µM (inactive)
FC(F)(F)c1ccccc1NC(=S)N1CCc2ccccc2C1 | > 26 µM (inactive)
O=C(NNC(=O)c1ccccc1OCc1ccc(F)cc1)c1ccccc1O | > 26 µM (inactive)
Cc1[nH]n(-c2ccc(Br)cc2)c(=O)c1/C=N/NC(=O)c1ccccc1 | > 26 µM (inactive)
COc1ccc(O)c(/C=N/NC(=O)c2ccc(CSc3nc(C)cc(C)n3)cc2)c1 | > 26 µM (inactive)
Cc1ccc(CSC(Nc2ccc(F)cc2)=C(C#N)C#N)cc1 | > 26 µM (inactive)
O=C(Nc1ccc(C(F)(F)F)cc1)C1CCN(S(=O)(=O)c2ccc(N3CCCC3=O)cc2)CC1 | > 26 µM (inactive)
O=C(Nc1nc(-c2ccccn2)cs1)c1ccccc1-n1cnnn1 | > 26 µM (inactive)
O=C(Nc1nc(-c2ccccn2)cs1)c1ccc(Br)s1 | > 26 µM (inactive)
C/C(=N\NC(=O)C(C)Oc1ccc([N+](=O)[O-])cc1)c1ccccn1 (stereo unspecified) | > 26 µM (inactive)
Cc1ccc(N(CC(=O)Nc2cc(C)cc(C)c2)S(=O)(=O)c2c(C)noc2C)cc1 | > 26 µM (inactive)
O=C(CC1C(=O)NCCN1Cc1ccc(-c2ccccc2)cc1)NC1CCC1 (stereo unspecified) | > 26 µM (inactive)

Structure (SMILES) | AC50
O=C(NC(c1ccc(Cl)cc1)c1cc(Cl)c2cccnc2c1O)c1cccnc1 (stereo unspecified) | > 26 µM (inactive)
O=C(Nc1nc2ccc(F)cc2s1)C1CCN(S(=O)(=O)c2cc([N+](=O)[O-])ccc2Cl)CC1 | > 26 µM (inactive)
COc1ccc2nc(C)cc(SCC(=O)N/N=C/c3ccc(O)cc3O)c2c1 | > 26 µM (inactive)
CCN(CC)CCNC(=O)c1ccc(NC(=O)c2cn(-c3ccccc3)nc2-c2cccs2)cc1 | 18.2 µM
[O-][n+]1onc2c1CCc1c-2nn(-c2ccccc2Cl)[n+]1[O-] | 15.9 µM
CCCCCCCC[n+]1cccc2c3ccccc3ccc21 | > 26 µM (inactive)
Cc1[nH]n(-c2ccccc2)c(=O)c1/C=N/NC(=O)c1cccc(F)c1 | > 26 µM (inactive)
C/C(=N\NC(N)=S)c1ccncc1 | > 26 µM (inactive)
COc1ccc(-c2nc(-c3ccccn3)no2)cc1 | > 26 µM (inactive)
c1ccc(C2(Cn3ccc4ccccc43)OCCO2)cc1 | > 26 µM (inactive)
CCOC(=O)N1CCN(S(=O)(=O)c2ccc(C(=O)NNc3nc4ccc(Cl)cc4s3)cc2)CC1 | > 26 µM (inactive)
Oc1ccccc1/C=N/Nc1nccnc1Cl | > 26 µM (inactive)
CCOc1ccc(C(Nc2cccnc2)c2cc(Cl)c3cccnc3c2O)cc1 (stereo unspecified) | > 26 µM (inactive)
NC1=NC[C@H](Cc2ccccc2)N1CCCCC1CCCCC1 | > 26 µM (inactive)
CCc1ccc(C2=NNC(=Nc3cccc(S(=O)(=O)N(C)C)c3)SC2)cc1 | > 26 µM (inactive)
Cc1cc(C(=O)N/N=C/c2cc(Br)ccc2OC(=O)c2ccccc2)n[nH]1 | > 26 µM (inactive)
COC(=O)c1ccc2c(c1)C(C)(C)C(/C=C/c1ccc(OC)c(OC)c1OC)=[N+]2C | > 26 µM (inactive)
CC(C)NC(=S)N/N=C/c1cc(Br)ccc1O | > 26 µM (inactive)
CCc1ccc(CN(C)C(=O)c2cc(COc3cccc4cnccc34)on2)cc1 | > 26 µM (inactive)
Cc1ccc(NC2=C/C(=N/S(=O)(=O)c3cccs3)c3ccccc3C2=O)cc1 | > 26 µM (inactive)
COC(/C(=N/O)c1ccc(Cl)cc1)c1ccccc1 (stereo unspecified) | > 26 µM (inactive)
O=C(CC(O)(C(F)(F)F)C(F)(F)F)Nc1ccc(Cl)c(Cl)c1 | > 26 µM (inactive)
CC(C)(C)c1ccc(-n2ncc3c2CCCC3NC(=O)C2(C(N)=O)CC2)cc1 (stereo unspecified) | > 26 µM (inactive)
CC(C)(C)c1ccc(OCc2ccc(C(=O)N/N=C/c3ccc(O)c(O)c3)cc2)cc1 | > 26 µM (inactive)

Structure (SMILES) | AC50
Cc1ccc(Cl)cc1NC1=C/C(=N\S(=O)(=O)c2cccs2)c2ccccc2C1=O | > 26 µM (inactive)
Oc1cccc(/C=N/Nc2ccc(Cl)nn2)c1O | > 26 µM (inactive)
COc1cc(NC(C)CCCN)c2ncccc2c1 (stereo unspecified) | > 26 µM (inactive)
Oc1ccc(Br)cc1/C=N/Nc1ccccn1 | > 26 µM (inactive)
Oc1c(N=Nc2ccccn2)ccc2ccccc12 | > 26 µM (inactive)
Cc1cc(N2CCN(c3nc4ccccc4s3)CC2)n2ncnc2n1 | > 26 µM (inactive)
O=C(Nc1cccnc1)c1ccc([N+](=O)[O-])s1 | > 26 µM (inactive)
CCc1ccc(Nc2n[n+](-c3ccccc3)c(-c3c(Cl)cccc3Cl)s2)cc1 | > 26 µM (inactive)
CCCC[n+]1ccn(C2=C([O-])c3ccccc3C(=O)/C2=N\S(=O)(=O)c2ccc(Cl)cc2)c1 | > 26 µM (inactive)
CC(=O)c1c(C)[nH]c(C(=O)CN2CCN(S(=O)(=O)c3ccccc3)CC2)c1C | > 26 µM (inactive)
COc1nnc(-c2ccc(N3CCCCC3)c(NC(=O)C3CCCCC3)c2)c2ccccc12 | > 26 µM (inactive)
CCOC(=O)c1ccc(NC(=O)Cn2cnc3cc(C)c(C)cc32)cc1 | > 26 µM (inactive)
Cc1cc(N2CCOCC2)n2ncc(-c3ccccc3)c2n1 | > 26 µM (inactive)
N#CCC(=O)N/N=C/c1cc(-c2ccccc2)n(-c2ccc(Cl)cc2)c1-c1ccccc1 | > 26 µM (inactive)
CN1/C(=C\C(=O)CN2C(=O)NC3(CCCCCC3)C2=O)C(C)(C)c2ccccc21 | > 12 µM (inactive)
Cc1ccc2nc(-c3ccccn3)c(Nc3ccccc3C)n2c1 | > 26 µM (inactive)
COc1ccc(Nc2nc(N3CCCCC3)c3ccccc3n2)cc1 | 21.1 µM
Cc1ccc(-c2ccc(/C=C3\C(=O)ON=C3c3ccccc3)o2)c([N+](=O)[O-])c1 | > 26 µM (inactive)
COC(=O)c1c(C)oc2ccc(N(C(=O)c3ccncc3)S(=O)(=O)c3ccc(C)cc3C)cc12 | > 26 µM (inactive)
CCOc1ccc(S(=O)(=O)N(C(=O)c2ccco2)c2cc3sc(=O)oc3c3ccccc23)cc1 | > 26 µM (inactive)
CCc1ccc(S(=O)(=O)/N=C2\C=C(Nc3ccc(O)cc3)C(=O)c3ccccc32)cc1 | > 26 µM (inactive)
N#Cc1c(Nc2ccccc2)sc(C(=O)c2ccc(F)cc2)c1N | > 26 µM (inactive)
C=CC[n+]1c(/C=C2\C=Cc3cc(C)ccc3N2CC)ccc2ccccc21 | > 26 µM (inactive)
CCCC12C(=O)C(C)(C(c3ccccc3)=C1c1ccccc1)C1C(=O)N(c3ccc(C)cc3)C(=O)C12 (stereo unspecified) | > 26 µM (inactive)
